According to patent publication US20170305922A1, “CARM1 INHIBITORS AND USES THEREOF” (Epizyme, Inc., priority 2014, published 2017):

How the values were obtained:
[1] = molecular target: T1, Human CARM1 (PRMT4) (Homo sapiens, UniProt Q86X55); assay: CARM1 enzyme assay on peptide substrates (3H-SAM Flashplate); details: Biochemical assay; CARM1 0.25 nM, 3H-SAM 30 nM, peptide 250 nM; read-out: Biochem IC50
T1 construct: Flag-CARM1-His was eluted with 200 ug/ml FLAG peptide in buffer A; made in house; host or cells: HEK 293F cells infected with recombinant baculovirus (pFastBacMam)
T1 sequence (Q86X55 1-585 isoform Q86X55-1): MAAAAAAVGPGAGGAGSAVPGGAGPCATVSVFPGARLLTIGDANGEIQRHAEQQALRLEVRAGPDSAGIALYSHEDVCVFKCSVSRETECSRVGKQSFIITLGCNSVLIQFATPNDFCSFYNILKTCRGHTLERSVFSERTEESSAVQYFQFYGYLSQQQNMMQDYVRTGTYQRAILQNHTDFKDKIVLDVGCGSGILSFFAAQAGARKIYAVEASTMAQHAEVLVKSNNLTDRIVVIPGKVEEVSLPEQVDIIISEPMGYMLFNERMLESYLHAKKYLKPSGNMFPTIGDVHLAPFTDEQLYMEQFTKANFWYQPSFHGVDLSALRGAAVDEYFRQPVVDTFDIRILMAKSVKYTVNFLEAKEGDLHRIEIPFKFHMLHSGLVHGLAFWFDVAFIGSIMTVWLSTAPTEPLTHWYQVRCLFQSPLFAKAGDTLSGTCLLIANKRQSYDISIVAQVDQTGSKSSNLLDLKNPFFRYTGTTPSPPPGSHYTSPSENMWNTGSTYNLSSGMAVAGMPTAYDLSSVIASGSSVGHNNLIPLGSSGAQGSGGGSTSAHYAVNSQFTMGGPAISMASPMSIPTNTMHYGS
Description: S-adenosylmethionine (SAM), S-adenosylhomocysteine (SAH), bicine, Tween20, dimethylsulfoxide (DMSO), bovine skin gelatin (BSG), sodium butyrate and Tris(2-carboxyethyl)phosphine hydrochloride solution (TCEP) were purchased from Sigma-Aldrich at the highest level of purity possible. ^3H-SAM was purchase from American Radiolabeled Chemicals with a specific activity of 80 Ci/mmol. 384-well streptavidin Flashplates were purchased from PerkinElmer.
Peptide representative of human histone H3 residues 16-30 was synthesized with an N-terminal linker-affinity tag motif and a C-terminal amide cap by 21st Century Biochemicals. […] The sequence was Biot-Ahx-[…]-amide and contained a monomethylated arginine at position 26 (SEQ ID NO.:1).
The gene sequence encoding isoform1 containing a deletion of amino acids 539-561 was amplified subsequently and subcloned into pFastBacMam (Viva Biotech).
Recombinant baculovirus were generated according to Bac-to-Bac kit instructions (Life Technologies). Protein over-expression was accomplished by infecting exponentially growing HEK 293F cell culture at 1.3×10^6 cell/ml with virus (MOI=10) in the presence of 8 mM sodium butyrate. Infections were carried out at 37° C. for 48 hours, harvested by centrifugation, and stored at −80° C. for purification.
Column was washed with 500 mM NaCl in buffer A and Flag-CARM1-His was eluted with 200 ug/ml FLAG peptide in buffer A. Pooled fractions were dialyzed in 20 mM Tris, 150 mM NaCl, 5% glycerol and 1 mM DTT, pH 7.8.
The assays were all performed in a buffer consisting of 20 mM Bicine (pH=7.6), 1 mM TCEP, 0.005% BSG, and 0.002% Tween 20, prepared on the day of use. Compounds in 100% DMSO (1 ul) were spotted into a polypropylene 384-well V-bottom plates (Greiner) using a Platemate Plus outfitted with a 384-channel head (Thermo Scientific). DMSO (1 ul) was added to Columns 11, 12, 23, 24, rows A-H for the maximum signal control and 1 ul of SAH, a known product and inhibitor of CARM1, was added to columns 11, 12, 23, 24, rows I-P for the minimum signal control. A cocktail (40 ul) containing the CARM1 enzyme was added by Multidrop Combi (Thermo-Fisher). The compounds were allowed to incubate with CARM1 for 30 min at room temperature, then a cocktail (10 ul) containing ^3H-SAM and peptide was added to initiate the reaction (final volume=51 ul). The final concentrations of the components were as follows: CARM1 was 0.25 nM, ^3H-SAM was 30 nM, peptide was 250 nM, SAH in the minimum signal control wells was 1 mM, and the DMSO concentration was 2%. The assays were stopped by the addition of non-radiolabeled SAM (10 ul) to a final concentration of 300 uM, which dilutes the ^3H-SAM to a level where its incorporation into the peptide substrate is no longer detectable. 50 ul of the reaction in the 384-well polypropylene plate was then transferred to a 384-well Flashplate and the biotinylated peptides were allowed to bind to the streptavidin surface for at least 1 hour before being washed once with 0.1% Tween20 in a Biotek ELx405 plate washer. The plates were then read in a PerkinElmer TopCount plate reader to measure the quantity of ^3H-labeled peptide bound to the Flashplate surface, measured as disintegrations per minute (dpm) or alternatively, referred to as counts per minute (cpm).
where dpm=disintegrations per minute, cmpd=signal in assay well, and min and max are the respective minimum and maximum signal controls.
where top and bottom are the normally allowed to float, but may be fixed at 100 or 0 respectively in a 3-parameter fit. The Hill Coefficient normally allowed to float but may also be fixed at 1 in a 3-parameter fit. Y is the % inhibition and X is the compound concentration.

[2] = system: asymmetric di-methyl PABP1 in RKO cells; assay: RKO methylation assay: In Cell Western (ICW) for asymmetric di-methyl PABP1 (PABP1me2a); details: Homo sapiens, RKO, 48 h, Cellular-based (PABP1me2a) ICW (In Cell Western) assay
Description: RKO adherent cells were purchased from ATCC (American Type Culture Collection), Manassas, Va., USA. DMEM/Glutamax medium, penicillin-streptomycin, heat inactivated fetal bovine serum, 0.05% trypsin and D-PBS were purchased from Life Technologies, Grand Island, N.Y., USA. Odyssey blocking buffer, 800CW goat anti-rabbit IgG (H+L) antibody, and Licor Odyssey infrared scanner were purchased from Licor Biosciences, Lincoln, Nebr., USA. Asymmetric di-methyl PABP1 antibody was purchased from Cell Signaling Technology, Danvers, Mass., USA. Methanol was purchased from VWR, Franklin, Mass., USA. 10% Tween 20 was purchased from KPL, Inc., Gaithersburg, Md., USA. Paraformaldehyde (PFA) was purchased from EM Sciences. DRAQ5 was purchased from Biostatus Limited, Leicestershire, UK.
RKO adherent cells were maintained in growth medium (DMEM/Glutamax medium supplemented with 10% v/v heat inactivated fetal bovine serum and 100 units/mL penicillin-streptomycin) and cultured at 37° C. under 5% CO2.
Cell treatment, In Cell Western (ICW) for detection of asymmetric di-methyl PABP1 and DNA content: RKO cells were seeded in assay medium at a concentration of 30,000 cells per mL to a poly-D-lysine coated 384 well culture plate (BD Biosciences 356697) with 50 μL per well. Compound (100 nL) from a 96-well source plate was added directly to 384 well cell plate. Plates were incubated at 37° C., 5% CO2 for 48 hours. After two days of incubation, plates were brought to room temperature outside of the incubator for ten minutes and blotted on paper towels to remove cell media. Cells were fixed for 20 minutes at room temperature by adding 50 ul of 8% PFA followed by aspiration of supernatant with the Biotek EL406 plate washer. Cells were then permeabilized by addition of 50 μL of ice cold 100% methanol directly to each well and incubated for 30 min at room temperature. After 30 min, plates were transferred to a Biotek EL406 plate washer and washed 2 times with 100 μL per well of wash buffer (1×PBS). Next 60 μL per well of Odyssey blocking buffer (Odyssey Buffer with 0.1% Tween 20 (v/v)) were added to each plate and incubated 1 hour at room temperature. Blocking buffer was removed and 20 μL per well of primary antibody was added (asymmetric-methyl PABP1) diluted 1:400 in Odyssey buffer with 0.1% Tween 20 (v/v)) and plates were incubated overnight (16 hours) at 4° C. Plates were washed 5 times with 100 μL per well of wash buffer. Next 20 μL per well of secondary antibody was added (1:800 800CW goat anti-rabbit IgG (H+L) antibody, 1:2000 DRAQ5 in Odyssey buffer with 0.1% Tween 20 (v/v)) and incubated for 1 hour at room temperature. The plates were washed 5 times with 100 μL per well wash buffer then 2 times with 100 μL per well of water. Plates were allowed to dry at room temperature then imaged on the Licor Odyssey machine which measures integrated intensity at 700 nm and 800 nm wavelengths. Both 700 and 800 channels were scanned.
First, the ratio for each well was determined by:
Each plate included fourteen control wells of DMSO only treatment (minimum inhibition) as well as fourteen control wells for maximum inhibition treated with 20 μM of a reference compound. The average of the ratio values for each control type was calculated and used to determine the percent […] for each test well in the plate. Reference compound was serially diluted three-fold in DMSO for a total of nine test concentrations, beginning at 20 μM.
Percent inhibition was determined and IC50 curves were generated using triplicate wells per concentration of compound.

| Structure (SMILES) | IC50 [1] [nM] | IC50 [2] [nM] |
| --- | --- | --- |
| CNC[C@@H](O)COc1ccc(Cl)c(-c2nc(-c3c(C)noc3C)c(C)c(N3C[C@H]4CN(C(=O)OC)C[C@H]4C3)n2)c1 [Example 53] | 5.3 | 198 |
| CNC[C@@H](O)COc1ccc(Cl)c(-c2nc(-c3c(C)noc3C)c(C)c(N3CC4=C(CN(CC(F)F)C4)C3)n2)c1 [Example 54] | 4.4 | 45 |
| CNC[C@@H](O)COc1ccc(Cl)c(-c2nc(-c3c(C)noc3C)c(C)c(N3CC4=C(CN(C(=O)OC)C4)C3)n2)c1 [Example 55] | 3.6 | 13 |
| CNC[C@@H](O)COc1ccc(F)c(-c2nc(-c3c(C)noc3C)c(C)c(N3CC4(CCC(F)CC4)C3)n2)c1 [Example 56] | 3.8 | 113 |
| CNC[C@@H](O)COc1ccc(F)c(-c2nc(-c3c(C)noc3C)c(C)c(N3CC4(CC=CCC4)C3)n2)c1 [Example 57] | 3.4 | 276 |
| CNC[C@@H](O)COc1ccc(Cl)c(-c2nc(-c3c(Cl)cnn3C)c(C)c(N3Cc4cccnc4C3)n2)c1 [Example 58] | 1.4 | 73 |
| CNC[C@@H](O)COc1cccc(-c2nc(-c3c(C)cnn3C)c(C)c(N3Cc4cccnc4C3)n2)c1 [Example 59] | 1.8 | 292 |
| CNC[C@@H](O)COc1cccc(-c2nc(-c3c(C)cnn3C)c(C)c(N3Cc4cncnc4C3)n2)c1 [Example 60] | 3.9 | 389 |
| CNC[C@@H](O)COc1cccc(-c2nc(-c3c(C)cnn3C)c(C)c(N3CC4(CCN(C(=O)OC)CC4)C3)n2)c1 [Example 61] | 13.7 | 874 |
| CNC[C@@H](O)COc1ccc(Cl)c(-c2nc(-c3c(C)noc3C)c(C)c(N3CC4(CN(CC(F)F)C4)C3)n2)c1 [Example 62] | 64.7 | 526 |
| CNC[C@@H](O)COc1ccc(Cl)c(-c2nc(-c3c(C)noc3C)c(C)c(N3CC4(CCN(C(C)=O)C4)C3)n2)c1 [Example 63] | 11 | 2060 |
| CNC[C@@H](O)COc1ccc(Cl)c(-c2nc(-c3c(C)noc3C)c(C)c(N3CC4(CCN(C5COC5)CC4)C3)n2)c1 [Example 64] | 11 | 111 |
| CNC[C@@H](O)COc1ccc(Cl)c(-c2nc(-c3c(C)noc3C)c(C)c(N3C[C@]4(C)CN(C(=O)OC)C[C@]4(C)C3)n2)c1 [Example 65] | 7.8 | 234 |
| CNC[C@@H](O)COc1ccc(Cl)c(-c2nc(-c3c(C)noc3C)c(C)c(N3Cc4nc(C)n(C)c(=O)c4C3)n2)c1 [Example 66] | 3.7 | 261 |
| CNC[C@@H](O)COc1ccc(Cl)c(-c2nc(-c3c(C)noc3C)c(C)c(N3CC4(CCC(F)(F)CC4)C3)n2)c1 [Example 67] | 5 | 71 |
| CNC[C@@H](O)COc1ccc(Cl)c(-c2nc(-c3c(C)noc3C)c(C)c(N3CC4(CC=C(F)CC4)C3)n2)c1 [Example 68] | 3.9 | 144 |
| CNC[C@@H](O)COc1ccc(Cl)c(-c2nc(-c3c(C)noc3C)c(C)c(N3Cc4ccc(C)nc4C3)n2)c1 [Example 69] | 1.2 | 22 |
| CNC[C@@H](O)COc1ccc(Cl)c(-c2nc(-c3c(C)noc3C)c(C)c(N3Cc4cnc(OC)nc4C3)n2)c1 [Example 70] | 3.2 | 19 |
| CNC[C@@H](O)COc1ccc(Cl)c(-c2nc(-c3c(C)noc3C)c(C)c(N3C[C@]4(C)CN(CC(F)F)C[C@]4(C)C3)n2)c1 [Example 71] | 5.6 | 221 |
| CCOc1ncc2c(n1)CN(c1nc(-c3cc(OC[C@H](O)CNC)ccc3Cl)nc(-c3c(C)noc3C)c1C)C2 [Example 72] | 2.9 | 12 |
| CNC[C@@H](O)COc1ccc(Cl)c(-c2nc(-c3c(C)noc3C)c(C)c(N3Cc4cc(=O)n(C(C)C)cc4C3)n2)c1 [Example 73] | 6.1 | 422 |
| CNC[C@@H](O)COc1ccc(Cl)c(-c2nc(-c3c(Cl)cnn3C)c(C)c(N3CC4(CCN(C(=O)OC)CC4)C3)n2)c1 [Example 74] | 9.7 | 207 |
| CCn1ncc(Cl)c1-c1nc(-c2cc(OC[C@H](O)CNC)ccc2Cl)nc(N2CC3(CCN(C(=O)OC)CC3)C2)c1C [Example 75] | 12.5 | 396 |
